Test results: ChEMBL document CHEMBL5505983, “Design, synthesis, and molecular modeling studies of novel 2-quinolone-1,2,3-triazole-α-aminophosphonates hybrids as dual antiviral and antibacterial agents” (Eur J Med Chem, 2024)
Converted amounts (≈) assume the structure as drawn.

What was measured:
Yellow fever virus = assay: Antiviral activity against Yellow fever virus infected in human Huh-7 cells assessed as inhibition of cytopathic effect by microscopy based analysis; type: functional, organism-based
[1] = Cytotoxicity against African green monkey Vero A cells; type: toxicity, cell-based; conditions: chlorocebus sabaeus
[2] = Selectivity index, ratio of CC50 for African green monkey Vero A cells to IC50 for CHIKV infected in African green monkey Vero A cells; type: toxicity; conditions: read-out: Ratio CC50/IC50
Staphylococcus aureus [3] = assay: Bactericidal activity against Staphylococcus aureus CIP 54127; type: functional
Pseudomonas aeruginosa [4] = assay: Antibacterial activity against Pseudomonas aeruginosa CIP A22 assessed as reduction in bacterial growth by micro-broth dilution method; type: functional
Pseudomonas aeruginosa [5] = assay: Ratio of MBC to MIC for Pseudomonas aeruginosa CIP A22; type: functional
Enterococcus faecalis [6] = assay: Antibacterial activity against Enterococcus faecalis assessed as reduction in bacterial growth by micro-broth dilution method; type: functional
[7] = Cytotoxicity against human HeLa-RH cells; type: toxicity, cell-based
Staphylococcus aureus [8] = assay: Antibacterial activity against Staphylococcus aureus CIP 54127 assessed as reduction in bacterial growth by micro-broth dilution method; type: functional
[9] = Cytotoxicity against human Huh-7 cells; type: toxicity, cell-based
Enterovirus A71 = assay: Antiviral activity against human EV71 infected in human RD cells assessed as inhibition of cytopathic effect by microscopy based analysis; type: functional, organism-based; conditions: Enterovirus A
Staphylococcus aureus [10] = assay: Ratio of MBC to MIC for Staphylococcus aureus CIP 54127; type: functional
Escherichia coli [11] = assay: Bactericidal activity against Escherichia coli CIP 53154; type: functional
Human rhinovirus sp. [12] = assay: Antiviral activity against Human rhinovirus B14 infected in human HeLa-RH cells assessed as inhibition of cytopathic effect by microscopy based analysis; type: functional, organism-based
[13] = Cytotoxicity against African green monkey Vero E6 cells; type: toxicity, cell-based, Vero C1008; conditions: chlorocebus sabaeus
Pseudomonas aeruginosa [14] = assay: Bactericidal activity against Pseudomonas aeruginosa CIP A22; type: functional
Escherichia coli [15] = assay: Ratio of MBC to MIC for Escherichia coli CIP 53154; type: functional
[16] = Cytotoxicity against human RD cells; type: toxicity, cell-based
Human rhinovirus sp. [17] = assay: Antiviral activity against Human rhinovirus A2 infected in human HeLa-RH cells assessed as inhibition of cytopathic effect by microscopy based analysis; type: functional, organism-based
Zika virus = assay: Antiviral activity against Zika virus infected in african green monkey Vero E6 cells assessed as inhibition of cytopathic effect by microscopy based analysis; type: functional, organism-based; conditions: Vero C1008
Escherichia coli [18] = assay: Antibacterial activity against Escherichia coli CIP 53154 assessed as reduction in bacterial growth by micro-broth dilution method; type: functional
Chikungunya virus = assay: Antiviral activity against CHIKV infected in African green monkey Vero A cells assessed as inhibition of cytopathic effect by microscopy based analysis; type: functional, organism-based
Enterococcus faecalis [19] = assay: Ratio of MBC to MIC for Enterococcus faecalis; type: functional
Enterococcus faecalis [20] = assay: Bactericidal activity against Enterococcus faecalis; type: functional
[21] = Selectivity index, ratio of CC50 for human Huh-7 cells to IC50 for Yellow fever virus infected in human Huh-7 cells; type: toxicity, cell-based; conditions: read-out: Ratio CC50/IC50

Compound | IC50 (Yellow fever virus) [µM] | CC50 [1] [µM] | MBC (Staphylococcus aureus [3]) [µM] | MIC (Pseudomonas aeruginosa [4]) [µM] | Ratio (Pseudomonas aeruginosa [5]) | MIC (Enterococcus faecalis [6]) [µM] | CC50 [7] [µM] | MIC (Staphylococcus aureus [8]) [µM] | CC50 [9] [µM] | IC50 (Enterovirus A71) [µM] | Ratio (Staphylococcus aureus [10]) | MBC (Escherichia coli [11]) [µM] | IC50 (Human rhinovirus sp. [12]) [µM] | CC50 [13] [µM] | MBC (Pseudomonas aeruginosa [14]) [µM] | Ratio (Escherichia coli [15]) | CC50 [16] [µM] | IC50 (Human rhinovirus sp. [17]) [µM] | IC50 (Zika virus) [µM] | MIC (Escherichia coli [18]) [µM] | other results
CCOP(=O)(OCC)C(Nc1ccccc1)c1cc(Cn2cc(Cn3c(=O)cc(C)c4ccccc43)nn2)ccc1O (centres undefined) | > 100 | > 100 | 1070 (≈ 629 µg/mL) | 2130 (≈ 1250 µg/mL) | 1 | 270 (≈ 159 µg/mL) | > 100 | 530 (≈ 311 µg/mL) | 51.1 | > 100 | 2.02 | 530 (≈ 311 µg/mL) | > 100 | > 100 | 2130 (≈ 1250 µg/mL) | 1.96 | > 100 | > 3.7 | > 100 | 270 (≈ 159 µg/mL) | selectivity ratio [2]: > 1.76; IC50 (Chikungunya virus): 56.9 µM; Ratio (Enterococcus faecalis [19]): 1; MBC (Enterococcus faecalis [20]): 270 µM (≈ 159 µg/mL)
CCOP(=O)(OCC)C(Nc1ccccc1OC)c1cc(Cn2cc(Cn3c(=O)cc(C)c4cc(Br)ccc43)nn2)ccc1O (centres undefined) | > 100 | > 100 | 450 (≈ 313 µg/mL) | 3590 (≈ 2500 µg/mL) | 2.01 | 110 (≈ 76.6 µg/mL) | > 33.3 | 230 (≈ 160 µg/mL) | 51.2 | > 100 | 1.96 | 1790 (≈ 1250 µg/mL) | > 100 | > 100 | 3590 (≈ 2500 µg/mL) | 1.99 | > 33.3 | > 0.41 | > 100 | 900 (≈ 627 µg/mL) | selectivity ratio [2]: > 1.23; IC50 (Chikungunya virus): 81.6 µM; Ratio (Enterococcus faecalis [19]): 1; MBC (Enterococcus faecalis [20]): 110 µM (≈ 76.6 µg/mL)
CCOP(=O)(OCC)C(Nc1ccccc1Br)c1cc(Cn2cc(Cn3c(=O)cc(C)c4cc(Br)ccc43)nn2)ccc1O (centres undefined) | 10.4 | 10.1 | 420 (≈ 313 µg/mL) | 420 (≈ 313 µg/mL) | 1 | 50 (≈ 37.3 µg/mL) | 18.4 | 210 (≈ 157 µg/mL) | 27.9 | > 100 | 2 | 850 (≈ 634 µg/mL) | > 100 | > 100 | 420 (≈ 313 µg/mL) | 2.02 | > 100 | > 0.41 | > 100 | 420 (≈ 313 µg/mL) | selectivity ratio [2]: 0.18; selectivity ratio [21]: 2.68; IC50 (Chikungunya virus): 57.3 µM; Ratio (Enterococcus faecalis [19]): 1; MBC (Enterococcus faecalis [20]): 50 µM (≈ 37.3 µg/mL)
CCOP(=O)(OCC)C(Nc1ccc(F)cc1)c1cc(Cn2cc(Cn3c(=O)cc(C)c4ccccc43)nn2)ccc1O (centres undefined) | > 100 | 75.2 | 510 (≈ 309 µg/mL) | 2060 (≈ 1250 µg/mL) | 1.98 | 70 (≈ 42.4 µg/mL) | 83.8 | 260 (≈ 157 µg/mL) | 31.4 | > 100 | 1.96 | 1040 (≈ 630 µg/mL) | > 100 | > 100 | 2060 (≈ 1250 µg/mL) | 2.04 | 75.8 | > 3.7 | > 100 | 510 (≈ 309 µg/mL) | selectivity ratio [2]: 2.83; IC50 (Chikungunya virus): 26.6 µM; Ratio (Enterococcus faecalis [19]): 1; MBC (Enterococcus faecalis [20]): 70 µM (≈ 42.4 µg/mL)
CCOP(=O)(OCC)C(Nc1ccc(F)cc1)c1cc(Cn2cc(Cn3c(=O)cc(C)c4cc(Br)ccc43)nn2)ccc1O (centres undefined) | > 100 | 25.8 | 450 (≈ 308 µg/mL) | 1830 (≈ 1250 µg/mL) | 1 | 60 (≈ 41.1 µg/mL) | 20.9 | 450 (≈ 308 µg/mL) | 22.2 | > 100 | 1 | 920 (≈ 630 µg/mL) | > 33.3 | > 33.3 | 1830 (≈ 1250 µg/mL) | 1 | > 100 | > 0.41 | > 100 | 920 (≈ 630 µg/mL) | selectivity ratio [2]: 3.79; IC50 (Chikungunya virus): 6.8 µM; Ratio (Enterococcus faecalis [19]): 1; MBC (Enterococcus faecalis [20]): 60 µM (≈ 41.1 µg/mL)
CCOP(=O)(OCC)C(Nc1ccccc1Cl)c1cc(Cn2cc(Cn3c(=O)cc(C)c4cc(F)ccc43)nn2)ccc1O (centres undefined) | 10.3 | 7 | 260 (≈ 166 µg/mL) | 4030 (≈ 2580 µg/mL) | 1 | 30 (≈ 19.2 µg/mL) | 12.5 | 130 (≈ 83.2 µg/mL) | 31 | > 100 | 2 | 4030 (≈ 2580 µg/mL) | > 100 | 28.1 | 4030 (≈ 2580 µg/mL) | 2 | > 100 | > 0.41 | > 100 | 2020 (≈ 1290 µg/mL) | selectivity ratio [21]: 3.01; IC50 (Chikungunya virus): > 100 µM; Ratio (Enterococcus faecalis [19]): 1; MBC (Enterococcus faecalis [20]): 30 µM (≈ 19.2 µg/mL)
Cc1cc(=O)n(Cc2cn(Cc3ccc(O)c(C=O)c3)nn2)c2ccccc12 | > 100 | > 100 | 210 (≈ 78.6 µg/mL) | 26700 (≈ 10000 µg/mL) | 2 | 110 (≈ 41.2 µg/mL) | 11.4 | 210 (≈ 78.6 µg/mL) | 37.5 | > 33.3 | 1 | 830 (≈ 311 µg/mL) | > 100 | 57.5 | 26700 (≈ 10000 µg/mL) | 1.93 | 27.1 | > 1.23 | > 100 | 430 (≈ 161 µg/mL) | selectivity ratio [2]: > 1.05; IC50 (Chikungunya virus): 95.7 µM; Ratio (Enterococcus faecalis [19]): 1; MBC (Enterococcus faecalis [20]): 110 µM (≈ 41.2 µg/mL)
